Where a SMILES comes first, the peptide text is derived from it. Where no end group is shown, it is not given here. The star is where a group is joined. Palmitoyl = CCCCCCCCCCCCCCCC(=O)*; Lauroyl = CCCCCCCCCCCC(=O)*; C16 = C16 lipid tail
What was measured:
[1] = tested on: aneurysmal aorta (CaCl2-induced AAA of the infrarenal aorta); assay: Targeting of PA nanomaterials to aneurysmal tissue in CaCl2-induced AAA rats (LSFM / fluorescence microscopy after intravenous injection); assay type: in vivo, Sprague Dawley rats; conditions: for targeting to the rat aorta (LSFM images): 2 hours post PA injection (FIG. 8A); for Targeting Capability: Table 1, aneurysm targeting
Source text: We also validated the CaCl2 model, by inducing aneurysms in 10 male and 7 female Sprague Dawley rats. We measured aortic diameter before AAA induction and then at days 14, 21, and 28 after induction using ultrasound. At day 35, we performed an endpoint surgery and measured the diameter of the aorta, perfusion-fixed the rats, and collected tissue. Tissue was cryo-sectioned and assayed for elastin (Verhoeff-Van Gieson (VVG)), calcium (Von Kossa), and MMP-2 (IF) staining. […] There was no significant difference between male and female rats in aortic dilation (data not shown). Further, we found both elastin fragmentation, and robust MMP-2 protein staining in the aortas exposed to CaCl2, with negligible amounts of fragmentation and MMP-2 in the suprarenal aortas from the same animals (FIG. 2 C+F). Fragmentation of elastin and MMP-2 corresponded to regions of the aorta that were calcified (FIG. 2E).
To evaluate the targeting specificity of the targeted PA nanomaterials, we induced AAA in the infrarenal aorta of Sprague Dawley rats by exposure to CaCl2. After 35 days, a period consistent with aneurysm formation, the targeted PA nanomaterials was injected intravenously. We assessed targeting specificity and duration to aneurysmal sites as well as to all vital organs. We also determined optimal concentration, dose, and co-assembly ratios. Controls included rats injected with saline alone, non-targeted PA nanomaterials, and PA nanomaterials bearing a scrambled targeting sequence.
Experimental Design. Dosage and targeting specificity. To evaluate specific localization of targeted PA nanomaterials, AAA is induced in the infrarenal aorta of male and female Sprague Dawley rats by exposure to CaCl2) (FIG. 4 and FIG. 5A). The features of human AAA can be recapitulated in rodent models. Here, we developed and validated a surgical model of AAA, where CaCl2 is applied to the periadventitial surface of the aorta.^4, 18 While no single model perfectly replicates human AAA, similarities between CaCl2-induced AAA and human aneurysms makes this a useful model. […]
Aortic dilation is measured using ultrasound imaging. […]
Targeting specificity of both MMP-2-targeting and elastin-targeting PAs to the aneurysmal aorta, non-aneurysmal suprarenal aorta, and all vital organs is assessed using in vivo imaging system (IVIS), light-sheet fluorescence microscopy (LSFM), and immunofluorescence (IF) microscopy. […] Targeting specificity was determined by measuring pixel count above an assigned threshold. Further, MMP-2 was quantified using IF microscopy and correlated to the amount of MMP-2-targeting PA. […] With this experiment, we confirmed that targeted PA nanomaterials localized to the site of interest and optimal dose for duration studies was determined. […]

[2] = Organ distribution of PA (kidney, liver, lung, spleen, aorta) by LSFM; assay type: in vivo, Sprague Dawley rats; conditions: 2 hours post injection (FIG. 11)
Procedure: (A) Organ distribution of MMP-2 targeting PA 1 in the kidney, liver, lung, spleen, and aorta of Sprague Dawley rats 2 hours post injection. White color represents autofluorescence and red to yellow represents TAMRA-labeled PA. (B) Plotted mean data of the ratio of PA to tissue in each organ.
Targeting specificity of both MMP-2-targeting and elastin-targeting PAs to the aneurysmal aorta, non-aneurysmal suprarenal aorta, and all vital organs is assessed using in vivo imaging system (IVIS), light-sheet fluorescence microscopy (LSFM), and immunofluorescence (IF) microscopy. […] Targeting specificity was determined by measuring pixel count above an assigned threshold. Further, MMP-2 was quantified using IF microscopy and correlated to the amount of MMP-2-targeting PA. When no adverse side effects occurred, the dosage was increased until we achieved saturation of targeting. With this experiment, we confirmed that targeted PA nanomaterials localized to the site of interest and optimal dose for duration studies was determined. Results are shown for 2 hours post PA injection of either 2.5 mg, 5 mg, or 10 mg of MMP-2-targeting PA 1. A higher PA volume to tissue volume ratio is seen in the 5 mg and 10 mg dose than the 2.5 mg dose. The 5 mg dose was selected for further investigation. […]

Compound | targeting to the rat aorta (LSFM images) [1] | Targeting Capability [1] | organ distribution (kidney, liver, lung, spleen, aorta) ([2]; listed as MMP-2-targeting PA 1) | organ distribution (kidney, liver, lung, spleen, aorta) ([2]; listed as MMP-2 targeting PA)
(C16)VVAAEEGGLWMDWVTEKNIN (C16-VVAAEEGGLWMDWVTEKNIN) [MTI-MMP_LWM, MT1-MMP-targeting peptide amphiphile] | targeting to the rat aorta | Targets aneurysm |  | 
PLSEWRASYNGGEEAAVVK(C12) (PLSEWRASYNGGEEAAVVK(Lauroyl)) [Fragmented Elastin_PLS, fragmented elastin-targeting peptide amphiphile on E2A2V2K(C12) diluent backbone] | targeting to the rat aorta | Does not target |  | 
CCCCCCCCCCCCCCCC(=O)N[C@H](C(=O)N[C@H](C(=O)N[C@@H](C)C(=O)N[C@@H](C)C(=O)N[C@@H](CCC(=O)O)C(=O)N[C@@H](CCC(=O)O)C(=O)NCC(=O)NCC(=O)N[C@@H](CCCNC(=N)N)C(=O)NCC(=O)N[C@@H](C)C(=O)N[C@@H](C)C(=O)N1CCC[C@H]1C(=O)N1CCC[C@H]1C(=O)N[C@@H](CCCCN)C(=O)N[C@@H](CCC(N)=O)C(=O)N[C@@H](CCC(=O)O)C(=O)N[C@@H](Cc1ccccc1)C(=O)N[C@@H](CC(C)C)C(=O)N[C@@H](CC(=O)O)C(=O)N[C@H](C(=O)N[C@@H](CCC(=O)O)C(=O)O)[C@@H](C)CC)C(C)C)C(C)C [MMP-2_RGA] (Palmitoyl-VVAAEEGGRGAAPPKQEFLDIE-OH; N-terminus and C-terminus assumed) |  |  | predominantly localized to the aorta | predominantly localizes to the aorta

Source: patent US20230072949A1, “NANOMATERIALS FOR TARGETED TREATMENT AND IMAGING OF ANEURYSMAL MICROENVIRONMENT” (The University of North Carolina at Chapel Hill, priority 2020, published 2023)
